Test results from patent US20040048791A1, “Method for treating neoplastic cells using cycloprodigiosin or salt thereof” (priority 2002, published 2004).
Entries after “also recorded” stand apart in the source; their conditions may differ. Structures can show the parent of a compound that is named as a salt.

Experiments:
[1] = system: JNK; test: JNK kinase activity after immune precipitation from HeLa cells; type: cell-based; settings: 1 μM, TNFα or PMA 15 minutes, FIG. 9A, hydrochloride
Description: HeLa cells were pretreated with cPrG-HCl (1 μM) for 1 hour and then stimulated with TNFα (20 ng/ml) or PMA (1 μg/ml) for 15 minutes, and JNK recovered by an immune precipitation method was then reacted with [γ-^32P]-ATP and a substrate GST-c-Jun, after which SDS-PAGE was carried out and the resulting gel was analyzed by an imaging analyzer. Further, HeLa cells were pretreated with cPrG-HCl (1 μM) for 1 hour and then stimulated with TNFα (20 ng/ml) for 15 minutes, a cell extract was recovered and subjected to SDS-PAGE and Western blotting was carried out using p38 phosphorylation antibody.

[2] = system: HeLa cells; test: DNA fragmentation (apoptosis) in HeLa cells; type: cell-based; settings: cPrG-HCl together with TNFα, FIG. 1A, hydrochloride
Description: Cell culture: HeLa cells were cultured in Dulbecco's modified Eagle's medium supplemented with 10% fetal bovine serum and 50 μg/ml kanamycin at 37° C. in 5% CO2 in air.
Assay for apoptotic processes: Cell viability was determined by dye exclusion assay using 0.1% trypan blue. DNA fragmentation was analyzed as described previously (Kawauchi, K. et al. (1997) Biochem. Biophys. Res. Commun. 237, 543-547). In the caspase-3 assay, cells were disrupted by freeze-thaw in an extraction buffer (50 mM Tris-HCl, pH7.4, 1 mM EGTA, 5 mM EDTA, 5 mM MgCl2, 1 mM APMSF, 10 μg/ml pepstatin, 10 μg/ml leupeptin, and 1 mM DTT). Then the suspension was centrifuged at 15,000 rpm for 20 min, and the supernatants obtained were incubated at 37° C. for 60 min in a reaction buffer (50 mM Tris-HCl, pH7.4, 1 mM EDTA, 10 mM EGTA) with 20 μM of the fluorogenic substrate DEVD-AFC (Peptide Institute, Inc., Japan). Cleavage of the substrates was quantified by measuring the fluorescence of 7-amino-4-trifluomethyl coumarin released using a spectrofluorometer (Shimadzu RF5000) with excitation at 380 mn and emission at 460 nm.
HeLa cells were treated with TNFα and cPrG.HCl and the effect of cPrG.HCl on apoptosis was examined by measuring DNA fragmentation and survivability.

COC1=CC(c2ccc[nH]2)=N/C1=C\c1[nH]c(C)c2c1C(C)CCC2 (centres unmarked) [cPrG-HCl, Cycloprodigiosin hydrochloride]
effect on JNK kinase [1]: suppressed neither; also recorded: no suppression
DNA fragmentation [2]: marked DNA fragmentation; also recorded: significant DNA fragmentation
